Some test systems named below: SNB-75 CNS; SF-268 CNS; NCI/ADR-RES ovarian; TK-10 renal; SNB-19 CNS; NCI-H522 lung; 786-0 renal; HOP-62 NSCLC; MDA-MB-435; COLO 205 colon.
Holding throughout (experiment): DTP human tumour cell line panel, 48 h

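Compound exposure: 48 hours, 5 concentrations, 96-well plates. GI50: concentration for 50% inhibition of growth. At the TGI there is no net growth.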

`CC(C)(C)c1cc(/C=N/NC(=O)c2ccccc2NC(=O)c2cccs2)c(O)c(C(C)(C)C)c1`: the GI50 in the experiment with SNB-75 CNS is 13.1 µM; in the experiment on SF-268 CNS, 0.668 µM; with NCI/ADR-RES ovarian it was 0.606 µM; with TK-10 renal it was 0.994 µM; in the experiment on SNB-19 CNS it was 0.916 µM; in the experiment on NCI-H522 lung, 1.84 µM. In addition, the GI50 in the experiment with 786-0 renal was 0.588 µM; in the experiment on HOP-62 NSCLC, 0.779 µM; in the experiment on MDA-MB-435 it was 2.46 µM; in the experiment with COLO 205 colon, 0.412 µM. Further, the TGI was more than 100 µM with SNB-75 CNS; more than 100 µM in the experiment with SF-268 CNS; 15.9 µM in the experiment on NCI/ADR-RES ovarian; 18.1 µM in the experiment with TK-10 renal; 71.1 µM with SNB-19 CNS; 30.4 µM with NCI-H522 lung. In addition, the TGI in the experiment on 786-0 renal was 15.7 µM; with HOP-62 NSCLC, 21.6 µM; in the experiment with MDA-MB-435, 77.7 µM; in the experiment with COLO 205 colon, 22.2 µM.
`COC(=O)c1cc2oc(/C=C3/SC(=S)N(N)C3=O)cc2n1Cc1ccccc1`: the GI50 in the experiment with SNB-75 CNS is 0.887 µM; in the experiment on SF-268 CNS, 2.22 µM; with NCI/ADR-RES ovarian, 4.61 µM; with TK-10 renal it was 3.2 µM; in the experiment on SNB-19 CNS, 5.79 µM; in the experiment on NCI-H522 lung it was 7.81 µM. Further, the GI50 is 2.84 µM in the experiment on 786-0 renal, 6.59 µM in the experiment on HOP-62 NSCLC, 6.65 µM with MDA-MB-435 and 5.42 µM with COLO 205 colon. Further, the TGI in the experiment on SNB-75 CNS was 11.3 µM; in the experiment on SF-268 CNS, 7.73 µM; in the experiment on NCI/ADR-RES ovarian, 26.9 µM; in the experiment on TK-10 renal, 11.8 µM; with SNB-19 CNS, 35.2 µM; in the experiment on NCI-H522 lung it was 21.8 µM. Besides, the TGI in the experiment on 786-0 renal was 8.53 µM; in the experiment on HOP-62 NSCLC, 25.6 µM; with MDA-MB-435, more than 41.5 µM; with COLO 205 colon, 20.7 µM.
In the case of `O=C(COc1cccc(/C=C2\CSc3ccc(Cl)cc3C2=O)c1)c1ccc(Cl)cc1`, the GI50 was 14 µM in the experiment with SNB-75 CNS; 13.6 µM with SF-268 CNS; 11.3 µM in the experiment on NCI/ADR-RES ovarian; 29 µM in the experiment on TK-10 renal; 6.57 µM in the experiment on SNB-19 CNS; 1.74 µM in the experiment on NCI-H522 lung. Also, the GI50 with 786-0 renal is 14.5 µM; with HOP-62 NSCLC, 22.1 µM; with MDA-MB-435, 2.29 µM; in the experiment with COLO 205 colon it was 5.32 µM. Further, the TGI in the experiment on SNB-75 CNS is 37.8 µM; in the experiment with SF-268 CNS, 30 µM; in the experiment with NCI/ADR-RES ovarian, 31.4 µM; in the experiment on TK-10 renal, 79.9 µM; with SNB-19 CNS, 20.8 µM; in the experiment with NCI-H522 lung it was 4.19 µM. The TGI with 786-0 renal worked out at 29.5 µM; with HOP-62 NSCLC, 72.7 µM; in the experiment with MDA-MB-435, 8.09 µM; with COLO 205 colon, 20.2 µM.
On to `NC(=S)N/N=C1\c2ccccc2-c2c(F)c(F)c(F)c(F)c21`, for which the GI50 with SNB-75 CNS is 6.36 µM; in the experiment with SF-268 CNS, 5.26 µM; in the experiment on NCI/ADR-RES ovarian it was 5.77 µM; in the experiment on TK-10 renal it was 5.7 µM; in the experiment on SNB-19 CNS, 11.4 µM; with NCI-H522 lung it was 0.321 µM. Besides, the GI50 is 6.56 µM in the experiment with 786-0 renal, 2.71 µM with HOP-62 NSCLC, 7.44 µM with MDA-MB-435 and 8.01 µM with COLO 205 colon. The TGI was determined as 21.6 µM in the experiment with SNB-75 CNS; 12.5 µM in the experiment with SF-268 CNS; 16.7 µM in the experiment with NCI/ADR-RES ovarian; 15.9 µM in the experiment on TK-10 renal; 29.2 µM in the experiment on SNB-19 CNS; 1.21 µM with NCI-H522 lung. The TGI amounted to 20 µM with 786-0 renal, 6.72 µM with HOP-62 NSCLC, 20.6 µM with MDA-MB-435 and 19.6 µM with COLO 205 colon.
Regarding `N#CC(C#N)=C1CCOc2ccc(F)cc21`, the GI50 with SNB-75 CNS was 22.7 µM; with SF-268 CNS it was 14.6 µM; with NCI/ADR-RES ovarian it was 16.1 µM; in the experiment on TK-10 renal, 14.1 µM; in the experiment on SNB-19 CNS, 27.3 µM; with NCI-H522 lung it was more than 100 µM. The GI50 with 786-0 renal is 16.2 µM; in the experiment on HOP-62 NSCLC, 13.2 µM; with MDA-MB-435 it was more than 100 µM; in the experiment with COLO 205 colon, 21.7 µM. The TGI in the experiment on SNB-75 CNS was 81.9 µM; in the experiment with SF-268 CNS, 48.4 µM; in the experiment with NCI/ADR-RES ovarian, 29.6 µM; in the experiment with TK-10 renal it was 33.3 µM; in the experiment with SNB-19 CNS, 96.1 µM; in the experiment with NCI-H522 lung, more than 100 µM. Also, the TGI with 786-0 renal was 32.8 µM; in the experiment with HOP-62 NSCLC, 25.9 µM; in the experiment with MDA-MB-435 it was more than 100 µM; with COLO 205 colon it was 67.6 µM.
On to `O=C(O)c1cc(=O)cc(C(=O)O)o1`, for which the GI50 in the experiment with SNB-75 CNS, with SF-268 CNS, with NCI/ADR-RES ovarian, with TK-10 renal, in the experiment with SNB-19 CNS and with NCI-H522 lung was more than 100 µM each time. Besides, the GI50 in the experiment with 786-0 renal, in the experiment on HOP-62 NSCLC, in the experiment on MDA-MB-435 and in the experiment on COLO 205 colon was more than 100 µM throughout. The TGI in the experiment on SNB-75 CNS, in the experiment with SF-268 CNS, in the experiment on NCI/ADR-RES ovarian, with TK-10 renal, in the experiment with SNB-19 CNS and in the experiment on NCI-H522 lung was more than 100 µM each time. Besides, the TGI with 786-0 renal, in the experiment with HOP-62 NSCLC, in the experiment with MDA-MB-435 and in the experiment on COLO 205 colon was more than 100 µM in each case.
As for `O=C1CC(c2ccccc2)Cc2nc3ccc(Br)cc3cc21` (stereo not given), the GI50 with SNB-75 CNS is 0.187 µM; in the experiment on SF-268 CNS, 4.65 µM; with NCI/ADR-RES ovarian it was 0.0748 µM; in the experiment with TK-10 renal, 24.2 µM; in the experiment on SNB-19 CNS, 0.495 µM; in the experiment on NCI-H522 lung it was 0.204 µM. Also, the GI50 in the experiment with 786-0 renal is 0.667 µM; in the experiment on HOP-62 NSCLC it was 0.526 µM; in the experiment on MDA-MB-435, 0.0328 µM; in the experiment with COLO 205 colon, 0.281 µM. Moreover, the total growth inhibition concentration (TGI) with SNB-75 CNS was more than 90.1 µM; in the experiment with SF-268 CNS, more than 100 µM; in the experiment with NCI/ADR-RES ovarian, 9.03 µM; with TK-10 renal, more than 100 µM; with SNB-19 CNS, more than 100 µM; with NCI-H522 lung, 20.3 µM. In addition, the TGI is more than 100 µM in the experiment with 786-0 renal, more than 100 µM with HOP-62 NSCLC, 0.126 µM in the experiment with MDA-MB-435 and 1.8 µM in the experiment with COLO 205 colon.

The GI50 is the concentration that inhibits growth by half. The TGI is the concentration at which net growth stops.

These data come from PubChem BioAssay (NCI).
